Usually inhibition stands for how much of the control response was suppressed. The term IC50 denotes the concentration that inhibits the measured activity by half.

Molecules are shown by their SMILES.

From article PMC9443684 (RSC Advances, 2022) come the findings set out here.

The subject of test [1] is MCF-7 cancer cell line. The test can be described thus: MTT assay, anticancer activity against MCF-7. The format is cell-based. To be noted: Homo sapiens; for inhibition at 10 µM: MCF7, read-out: Cell growth inhibition (GI%); for IC50: MCF7, 48 h, read-out: Anticancer activity IC50. In general terms: Tetrazolium assays rely on reduction of a dye to a coloured formazan, in cell work by metabolically active cells.

Test [2] relates to HepG2 cancer cell line. The test can be described thus: MTT assay, anticancer activity against HepG2. Format: cell-based. To be noted: Homo sapiens; for inhibition at 10 µM: HepG2, read-out: Cell growth inhibition (GI%); for IC50: HepG2, 48 h, read-out: Anticancer activity IC50.
Test [3] concerns HCT-116 cancer cell line. The test can be described thus: MTT assay, anticancer activity against HCT-116. The format is cell-based. The following applies: Homo sapiens; for inhibition at 10 µM: HCT-116, read-out: Cell growth inhibition (GI%); for IC50: HCT-116, 48 h, read-out: Anticancer activity IC50.
Test [4] has as its target T1, COX-1 (Ovis aries, UniProt P05979).
T1 sequence (P05979 25-600): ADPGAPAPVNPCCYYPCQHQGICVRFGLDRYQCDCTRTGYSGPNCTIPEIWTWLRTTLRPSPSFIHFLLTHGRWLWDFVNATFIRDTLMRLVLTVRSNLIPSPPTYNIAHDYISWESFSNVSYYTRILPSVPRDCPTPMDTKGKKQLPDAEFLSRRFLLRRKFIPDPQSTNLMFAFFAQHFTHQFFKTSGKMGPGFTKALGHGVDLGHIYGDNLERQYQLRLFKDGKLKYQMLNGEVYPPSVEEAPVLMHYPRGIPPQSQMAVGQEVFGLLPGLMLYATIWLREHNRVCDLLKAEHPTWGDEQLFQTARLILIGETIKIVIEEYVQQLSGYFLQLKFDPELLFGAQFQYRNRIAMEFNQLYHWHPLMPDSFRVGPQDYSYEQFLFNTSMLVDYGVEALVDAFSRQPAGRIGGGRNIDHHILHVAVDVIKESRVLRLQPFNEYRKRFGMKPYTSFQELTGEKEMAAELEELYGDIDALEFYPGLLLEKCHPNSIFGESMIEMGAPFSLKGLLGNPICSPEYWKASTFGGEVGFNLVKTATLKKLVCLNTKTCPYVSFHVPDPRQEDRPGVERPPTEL
The test can be described thus: In vitro cyclooxygenase. Format: biochemical, ovine.

Test [5] addresses T2, COX-2 (Ovis aries, UniProt P79208).
T2 sequence (P79208 17-603): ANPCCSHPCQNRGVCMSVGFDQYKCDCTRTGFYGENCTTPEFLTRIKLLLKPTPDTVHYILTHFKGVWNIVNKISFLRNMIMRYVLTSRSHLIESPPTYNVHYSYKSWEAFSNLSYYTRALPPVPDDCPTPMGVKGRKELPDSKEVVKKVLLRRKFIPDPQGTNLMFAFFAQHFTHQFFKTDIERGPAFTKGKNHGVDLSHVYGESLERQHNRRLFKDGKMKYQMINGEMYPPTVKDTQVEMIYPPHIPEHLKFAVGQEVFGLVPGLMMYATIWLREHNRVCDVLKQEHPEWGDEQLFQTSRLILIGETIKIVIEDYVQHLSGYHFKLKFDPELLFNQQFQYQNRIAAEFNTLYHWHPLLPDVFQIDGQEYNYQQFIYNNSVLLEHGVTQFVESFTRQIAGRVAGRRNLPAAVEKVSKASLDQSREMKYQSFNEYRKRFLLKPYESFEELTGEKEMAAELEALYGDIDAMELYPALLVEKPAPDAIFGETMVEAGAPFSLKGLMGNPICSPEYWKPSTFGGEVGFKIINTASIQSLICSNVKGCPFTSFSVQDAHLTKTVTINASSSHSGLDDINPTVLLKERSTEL
Description: In vitro cyclooxygenase. To be noted: for SI (selectivity index): IC50 (COX-1)/IC50 (COX-2). The format is biochemical, ovine.

Test [6] concerns MCF-7, HepG2 and HCT-116 cancer cell lines. The test can be described thus: MTT assay, statements over the three cancer cell lines together. Format: cell-based. To be noted: for IC50: read-out: Anticancer activity IC50 against the three cancer cell lines; for inhibition at 10 µM: read-out: Growth inhibition against the three cancer cell lines.
Test [7] has as its target EGFR (Homo sapiens, UniProt P00533). The test can be described thus: In vitro EGFR-TK inhibition assay. Format: biochemical.

EGFR, sequence (P00533 25-1210): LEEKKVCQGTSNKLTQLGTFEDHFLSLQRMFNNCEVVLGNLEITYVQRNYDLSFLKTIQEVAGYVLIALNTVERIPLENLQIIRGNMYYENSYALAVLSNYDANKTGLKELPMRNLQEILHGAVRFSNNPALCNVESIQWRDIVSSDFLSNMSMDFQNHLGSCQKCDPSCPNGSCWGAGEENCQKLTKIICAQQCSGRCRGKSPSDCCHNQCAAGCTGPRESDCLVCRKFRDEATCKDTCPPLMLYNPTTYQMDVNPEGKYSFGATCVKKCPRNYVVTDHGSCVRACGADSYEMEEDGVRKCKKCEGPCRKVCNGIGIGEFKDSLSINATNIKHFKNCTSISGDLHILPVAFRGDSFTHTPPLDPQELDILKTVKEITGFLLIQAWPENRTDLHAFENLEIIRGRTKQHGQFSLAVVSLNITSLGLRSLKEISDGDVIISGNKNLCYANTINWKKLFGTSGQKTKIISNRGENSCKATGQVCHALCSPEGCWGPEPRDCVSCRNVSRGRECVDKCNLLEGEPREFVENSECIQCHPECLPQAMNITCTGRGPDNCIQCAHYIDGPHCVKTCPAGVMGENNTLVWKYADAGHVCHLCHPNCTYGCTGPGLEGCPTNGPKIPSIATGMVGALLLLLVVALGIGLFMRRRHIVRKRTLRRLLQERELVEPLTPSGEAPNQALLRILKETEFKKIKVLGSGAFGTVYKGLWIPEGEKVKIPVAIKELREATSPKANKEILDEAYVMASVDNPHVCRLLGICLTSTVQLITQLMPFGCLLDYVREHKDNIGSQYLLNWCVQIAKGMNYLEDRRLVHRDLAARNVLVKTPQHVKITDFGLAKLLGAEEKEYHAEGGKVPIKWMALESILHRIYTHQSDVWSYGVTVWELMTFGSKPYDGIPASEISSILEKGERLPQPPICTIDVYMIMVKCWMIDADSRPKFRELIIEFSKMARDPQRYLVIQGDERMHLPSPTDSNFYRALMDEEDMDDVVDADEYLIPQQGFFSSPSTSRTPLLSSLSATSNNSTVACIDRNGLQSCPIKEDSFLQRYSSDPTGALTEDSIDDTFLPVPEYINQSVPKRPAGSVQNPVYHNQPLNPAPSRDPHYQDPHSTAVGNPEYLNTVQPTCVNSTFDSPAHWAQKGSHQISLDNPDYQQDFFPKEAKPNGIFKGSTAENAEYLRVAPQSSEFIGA

For the compound `Cn1c(=O)c(C(=O)NN=Cc2ccccc2)nc2ccccc21` [Compound 2a, N′-benzylidene-4-methyl-3-oxo-3,4-dihydroquinoxaline-2-carbohydrazide], the results for the inhibition at 10 µM in test [1], in test [2] and in test [3] were 82.85 ± 0.49%, 89.21 ± 0.63% and 69.25 ± 0.45%, respectively.
As for `Cn1c(=O)c(C(=O)N/N=C/c2ccc(Cl)cc2)nc2ccccc21` [Compound 2b, (E)-N′-(4-chlorobenzylidene)-4-methyl-3-oxo-3,4-dihydroquinoxaline-2-carbohydrazide], the IC50 in test [1] was 15.98 ± 0.06 µM; in test [2], 12.41 ± 0.05 µM; in test [3], 16.3 ± 0.24 µM; in test [4], 4.42 ± 1.67 µM; in test [5], 5.26 ± 0.49 µM; in test [6] it was above 10 µM. In addition, the inhibition at 10 µM stood at 95.5 ± 1.25% in test [1], 90.76 ± 0.29% in test [2] and 88.68 ± 0.52% in test [3]. In addition, the “SI (selectivity index)” value in test [5] is on record as 0.84.
In the case of `Cn1c(=O)c(C(=O)NN=Cc2ccc(O)cc2)nc2ccccc21` [Compound 2c, N′-(4-hydroxybenzylidene)-4-methyl-3-oxo-3,4-dihydroquinoxaline-2-carbohydrazide], the inhibition at 10 µM is 69.72 ± 0.46% in test [1], 77.95 ± 0.56% in test [2], 61.92 ± 0.55% in test [3] and at least 88.7% in test [6].
For the compound `Cn1c(=O)c(C(=O)N/N=C/c2ccc3c(c2)OCO3)nc2ccccc21` [Compound 2d, (E)-N′-(benzo[d][1,3]dioxol-5-ylmethylene)-4-methyl-3-oxo-3,4-dihydroquinoxaline-2-carbohydrazide], the values for the inhibition at 10 µM in test [1], in test [2] and in test [3] were 50.14 ± 0.46%, 56.95 ± 0.35% and 59.5 ± 0.78%, respectively.
For `Cn1c(=O)c(C(=O)N/N=C2\C(=O)Nc3ccccc32)nc2ccccc21` [Compound 4a, (Z)-4-Methyl-3-oxo-N′-(2-oxoindolin-3-ylidene)-3,4-dihydroquinoxaline-2-carbohydrazide], the IC50 in test [1] worked out at 4.42 ± 0.12 µM; in test [2] it was 4.23 ± 0.09 µM; in test [3], 4.54 ± 0.19 µM; in test [4], 28.8 ± 1.02 µM; in test [5], 1.17 ± 0.15 µM; in test [7] it was 0.3 ± 0.01 µM. For the same compound, in test [6], the IC50 fell in the range of 3.21 to 4.54 µM. Further, the inhibition at 10 µM was 90.14 ± 0.76% in test [1], 91.82 ± 0.35% in test [2], 92.79 ± 0.15% in test [3] and at least 88.7% in test [6]. Besides, the “SI (selectivity index)” value in test [5] was 24.61.
Regarding `CN1C(=O)/C(=N\NC(=O)c2nc3ccccc3n(C)c2=O)c2ccccc21` [Compound 4b, (Z)-4-Methyl-N′-(1-methyl-2-oxoindolin-3-ylidene)-3-oxo-3,4-dihydroquinoxaline-2-carbohydrazide], the inhibition at 10 µM in test [1] came to 61.47 ± 0.37%; in test [2], 52.4 ± 0.74%; in test [3] it was 59.46 ± 0.27%.
For the compound `C/C(=N\NC(=O)c1nc2ccccc2n(C)c1=O)c1cc2ccccc2oc1=O` [Compound 5, (E)-4-Methyl-3-oxo-N′-(1-(2-oxo-2H-chromen-3-yl)ethylidene)-3,4-dihydroquinoxaline-2-carbohydrazide], the IC50 in test [1] worked out at 3.21 ± 0.1 µM; in test [2], 3.62 ± 0.21 µM; in test [3], 3.46 ± 0.15 µM; in test [4], 40.3 ± 3.35 µM; in test [5], 0.83 ± 0.4 µM; in test [7] it was 0.9 ± 0.01 µM. For the same compound, the IC50 in test [6] lay within 3.21 to 4.54 µM. Moreover, the inhibition at 10 µM was 91.47 ± 0.25% in test [1], 90.79 ± 0.21% in test [2], 93.75 ± 0.29% in test [3] and at least 88.7% in test [6]. For the same compound, the “SI (selectivity index)” value in test [5] was determined as 48.58.
As to `Cn1c(=O)c(C(=O)N/N=C/C(O)C(O)C(O)CO)nc2ccccc21` (stereo not drawn) [Compound 6, (E)-4-Methyl-3-oxo-N′-(2,3,4,5-tetrahydroxypentylidene)-3,4-dihydroquinoxaline-2-carbohydrazide], the inhibition at 10 µM in test [1] was 10.8 ± 0.76%; in test [2], 21.4 ± 0.52%; in test [3], 41.8 ± 1.27%.
The corresponding values for `Cn1c(=O)c(C(=O)N/N=C/C(O)C(O)C(O)C(O)CO)nc2ccccc21` (stereo not drawn) [Compound 7, (E)-4-Methyl-3-oxo-N′-(2,3,4,5,6-pentahydroxyhexylidene)-3,4-dihydroquinoxaline-2-carbohydrazide] are 10.3 ± 0.48%, 26.4 ± 0.83% and 33.9 ± 1.27%.
In the case of `CC(=O)C/C(=N/NC(=O)c1nc2ccccc2n(C)c1=O)c1ccccc1` [Compound 9, (Z)-4-methyl-3-oxo-N′-(3-oxo-1-phenylbutylidene)-3,4-dihydroquinoxaline-2-carbohydrazide], the IC50 is 6.84 ± 0.07 µM in test [1]; 5.54 ± 0.27 µM in test [2]; 8.75 ± 0.25 µM in test [3]; 38.7 ± 1.27 µM in test [4]; 2.21 ± 0.14 µM in test [5]. In addition, the inhibition at 10 µM was 92.97 ± 0.54% in test [1], 96.83 ± 0.29% in test [2], 97.89 ± 0.69% in test [3] and at least 88.7% in test [6]. Also, in test [5], the “SI (selectivity index)” value was 17.52.
For the compound `CN1c2ccccc2N=C(C(=O)NN)C1N=N` (stereo not drawn) [Compound 10, 3-Diazenyl-4-methyl-3,4-dihydroquinoxaline-2-carbohydrazide], the inhibition at 10 µM in test [1] was determined as 49.8 ± 0.86%; in test [2] it was 52.4 ± 0.69%; in test [3], 86.6 ± 1.31%.
As for `Cn1c(=O)c(C(=O)NNC(=O)CC(=O)c2ccccc2)nc2ccccc21` [Compound 11, 4-Methyl-3-oxo-N′-(3-oxo-3-phenylpropanoyl)-3,4-dihydroquinoxaline-2-carbohydrazide], the IC50 in test [1] is 2.91 ± 0.23 µM; in test [2], 2.41 ± 0.07 µM; in test [3], 2.38 ± 0.26 µM; in test [4], 38 ± 0.66 µM; in test [5], 0.62 ± 0.07 µM; in test [7], 0.6 ± 0.04 µM. In addition, the IC50 in test [6] was 0.81 to 2.91 µM. The inhibition at 10 µM in test [1] is 92.57 ± 0.43%; in test [2] it was 92.78 ± 0.38%; in test [3], 97.63 ± 0.16%; in test [6], at least 88.7%. Also, the “SI (selectivity index)” value in test [5] is listed as 61.23.
For the compound `Cc1cc(C)n(C(=O)c2nc3ccccc3n(C)c2=O)n1` [Compound 12, 3-(3,5-Dimethyl-1H-pyrazole-1-carbonyl)-1-methylquinoxalin-2(1H)-one], the values for the inhibition at 10 µM in test [1], in test [2] and in test [3] were 33.5 ± 0.82%, 53.8 ± 1.38% and 49.2 ± 1.23%, respectively.
Taken in the same sequence, the figures for `Cn1c(=O)c(-c2nnco2)nc2ccccc21` [Compound 14, 1-Methyl-3-(1,3,4-oxadiazol-2-yl)quinoxalin-2(1H)-one] were 29.3 ± 0.63%, 25.7 ± 1.67% and 33.3 ± 1.32%.
`Cn1c(=O)c(-c2n[nH]c(=S)o2)nc2ccccc21` [Compound 15, 1-Methyl-3-(5-thioxo-4,5-dihydro-1,3,4-oxadiazol-2-yl)quinoxalin-2(1H)-one]: the inhibition at 10 µM in test [1] was determined as 43.5 ± 0.63%; in test [2], 59.5 ± 1.92%; in test [3] it was 76.3 ± 1.22%.
For `COc1cccc2c1C(=O)c1c(O)c3c(c(O)c1C2=O)C[C@@](O)(C(=O)CO)C[C@@H]3O[C@H]1C[C@H](N)[C@H](O)[C@H](C)O1` [Doxorubicin, doxorubicin, reference compound], the IC50 in test [1] came out at 0.9 ± 0.02 µM; in test [2], 1.21 ± 0.08 µM; in test [3], 0.51 ± 0.03 µM.
